How the values were obtained:
[1] = tested on: mouse Heps (mHeps); assay: Endocytosis competition of FITC-fNLPNTL uptake, fluorescence microscopy; type: cell-based; settings: primary mHeps, 4 h serum starved, 100 μg/ml competitor pre-incubated 30 min, then 20 μg/ml FITC-fNLPNTL 60 min at 37°C
[2] = tested on: human hepatocytes (hHeps); assay: as above; type: cell-based; settings: primary hHeps, 4 h serum starved, 100 μg/ml competitor pre-incubated 30 min, then 20 μg/ml FITC-fNLPNTL 60 min at 37°C
Description: (§1) Human hepatocytes (hHeps) and LSECs (hLSECs) were isolated from encapsulated liver resections based on a method described elsewhere. The procedure involves collagenase perfusion through cut blood vessels exposed on the surface of the liver resection. hHeps were isolated by low speed differential centrifugation, and the hLSECs purified by immunomagnetic isolation using mouse anti-human CD32 (Fitzgeralg Industries International INC, North Acton, MA, USA) and Dynabeads® Sheep anti-mouse IgG (Thermo Scientific, Oslo, Norway). The viability of hLSECs as judged by trypan blue exclusion was 95%, and the yield of hLSECs varied from 1 to 10 million depending on the size of the liver resection. The purity of the hLSECs isolation was between 85 and 95%, as judged by light microscopy. This variation in purity is due to donor variation. […]
(§2) Primary cultures of mouse and human Heps and LSECs were seeded on Permanox chamber slides coated with human fibronectin. […] After removal of unbound ligand by extensive washing with PBS, the cultures were fixed with 4% PFA and processed for fluorescence microscopy as described above.
(§3) After the removal of unbound ligands by extensive washing with PBS, the cultures were fixed with 4% PFA and processed for fluorescence microscopy.

[3] = tested on: mouse LSECs (mLSECs); assay: as above; type: cell-based; settings: primary mLSECs, 4 h serum starved, 100 μg/ml competitor pre-incubated 30 min, then 20 μg/ml FITC-fNLPNTL 60 min at 37°C
Method: Mouse Heps (mHeps) and LSECs (mLSECs) were prepared by collagenase (Liberase) perfusion of mouse livers, followed by a low-speed differential centrifugation to separate Heps, and density sedimentation of the non-Heps enriched in the supernatant, on 25%– 45% Percoll gradients to collect LSECs and Kupffer cells (KCs), as described. Mouse LSECs were obtained after a panning step of 8 min at 37°C to remove KCs. The purity of mLSECs was between 90 and 95% as judged by fenestration assessed by scanning electron microscopy and positive immunostaining for the LSEC specific marker, stabilin 2. The remaining 5–10% of cells in these cultures represented KCs/monocytes and stellate cells. […]
as §2, §3
(§4) Primary cultures of hLSECs (A) and mLSECs (B) were established on Permanox chamber slides coated with human fibronectin. […] After removal of unbound ligands by extensive washing with PBS, the cultures were fixed with 4% PFA and processed for fluorescence microscopy.

[4] = tested on: human LSECs (hLSECs); assay: as above; type: cell-based; settings: primary hLSECs, 4 h serum starved, 100 μg/ml competitor pre-incubated 30 min, then 20 μg/ml FITC-fNLPNTL 60 min at 37°C
Description: as §1, with “resection.” for “resection. The purity of the hLSECs isolation was between 85 and 95%, as judged by light microscopy. This variation in purity is due to donor variation.”
as §2, §3, §4

[5] = Anatomical distribution of i.v. injected 125I-labeled peptides; type: in vivo; settings: C57BL/6 mice, 8 μg 125I-labeled peptide i.v., n = 2 per group
Method: Unconjugated fNLPNTL and FITC- fNLPNTL were reconstituted at a concentration of 4 mg/ml in DMSO. […] of the solution, corresponding to 100 μg of each peptide was further diluted in PBS to a final volume of 200 μl and incubated with carrier-free Na^125I for 1h at RT, using Iodogen as described by the manufacturer. The labeled peptides were separated from unbound ^125I by elution with PBS through PD-10 columns. The specific radioactivities were 0.98 x 10^6 cpm/μg and 0.12 x 10^6 cpm/μg for ^125I-FITC-fNLPNTL and ^125I-fNLPNTL, respectively.
Prior to experiments, mice were weighed and pre-warmed in a temperature controlled chamber to stimulate dilation of the tail veins. […] The amount of radioactivity was measured in all organs and in the blood sample. The radioactivity per total volume of blood was calculated considering that the average amount of blood in a mouse is approximately 58.5 ml per kg of bodyweight (according to the National Centre for the Replacement Refinement & Reduction of Animals in Research). The amount of tracer recovered was the sum of radioactivity of individual organs, carcass and the radioactivity calculated in total blood volume.
Fig 2 Anatomical distribution of i.v. administered fNLPNTL. […] Blood, internal organs and carcass were harvested and analyzed for radioactivity. […]

| Substance | inhibition of uptake of FITC-fNLPNTL in mHeps by competitor [1] | inhibition of uptake of FITC-fNLPNTL in hHeps by competitor [2] | inhibition of uptake of FITC-fNLPNTL in mLSECs by competitor [3] | inhibition of uptake of FITC-fNLPNTL in hLSECs by competitor [4] | uptake in the liver compared to that of native fNLPNTL ([5]; 30 min post injection) | major organ of uptake ([5]; organs analysed 30 min post injection after systemic perfusion, radioactivity as % of total recovered) |
| --- | --- | --- | --- | --- | --- | --- |
| N-Formyl-Nle-Leu-Phe-Nle-Tyr-Lys [fNLPNTL, N-formyl peptide purchased from Phoenix Pharmaceuticals] | blocked | blocked | less marked effect | less marked effect |  |  |
| Fluorescein-isothiocyanate- N-Formyl-Nle-Leu-Phe-Nle-Tyr-Lys [FITC-fNLPNTL, fluorescein isothiocyanate derivative of fNLPNTL from Thermo Scientific] |  |  |  |  | three-fold higher | liver |
| FSA: Formaldehyde-treated bovine serum albumin, ligand specifically endocytosed by the LSECs scavenger receptors |  |  | inhibited | inhibited |  |  |
